Square brackets hold non-standard residues; d marks the D form. Ends that are not written are not given here. Gla = N[C@@H](CC(C(=O)O)C(=O)O)C(=O)O
Legend:
[1] = Release kinetics of modular peptides from HA-coated film; conditions: after 70 days
Procedure: To quantify release kinetics of 5(6) FAM-conjugated modular peptides from HA-coated film, the films were first incubated in solutions containing 250 μM (˜500 μg) of each peptide (eBGu1, eBGu3, eBGa1, or eBGa3) to allow for binding (as described above), then incubated in 500 μl of PBS buffer at 37° C. with constant agitation for 5 days (eBGu1 and eBGu3 peptides) or 10 weeks (eBGa1 and eBGa3 peptides), respectively. Whole buffer solutions were changed at indicated time points and the amount of peptide released from the HA-coated film was determined via fluorescence analysis and comparison with standards containing known amounts of 5(6)-FAM. The fluorescent images of fluorescently-labeled peptides bound to HA-coated films were obtained using an Olympus IX51 fluorescence microscope (Olympus, Center Valley, Pa.).

hMSCs = experiment: Mineralized tissue formation by hMSCs (Alizarin Red-S staining); type: cell-based, human; conditions: peptide bound to HA-coated film, vs untreated substrates
Procedure: hMSCs (Cambrex, Walkersville, Md., passages 5-6) were cultured in mesenchymal stem cell growth medium (MSCGM: Cambrex) consisting of MSC Basal Medium supplemented with 10% fetal bovine serum, L-glutamine, 100 units/ml penicillin, and 0.1 mg/ml streptomycin and grown using culture methods described elsewhere. 2.5×10^4 hMSCs were seeded onto either tissue culture-treated polystyrene (TCP) or four different types of experimental substrates (1 cm^2) (PLG, HA-coated PLG, eBGu3-treated HA coating, or eBGa3-treated HA coating). hMSCs were allowed to attach to each substrate overnight, then cultured in MSCGM with osteogenic culture supplements (OS) (0.1 μM dexamethasone, 50 μg/ml ascorbic acid, and 10 mM β-glycerophosphate) for 24 days. The effects of soluble peptides included in culture medium were evaluated by adding 50 μg of eBGu3 or eBGa3 peptides to hMSC cultures on TCP in 500 μl of medium with or without osteogenic culture supplements. […]
Characterization of mineralized tissue growth was performed via Alizarin Red-S (ARS) staining at day 20. […] For quantification of staining, 400 μl 10% (v/v) acetic acid was added to each well for 30 minutes with shaking. […] Aliquots (100 μl) of the supernatant were read in triplicate at 405 nm in 96-well plate reader.

[2] = Binding of rhodamine-labeled peptide to living trabecular bone cores in a bone bioreactor; set-up: species or system bovine; conditions: 100 μg/mL in DMEM circulated, 2-10 hours
Procedure: The native bone used were harvested from sheep tibia and bovine sternum. Cortical (compact) bone slices were collected from sheep tibia with periosteum removed, and trabecular (cancellous, spongy) bone cores were drilled out from bovine sternum under sterile conditions.
The peptide binding to native bones was tested in three different experiments. In the first experiment, the cortical bone slices were incubated in modular peptide solution (0.5 mL, PBS) with concentrations of 50, 100, 200 and 300 μg/mL. The incubation was continued in a static condition for a period of 0.5, 1, 2 and 3 hours. […] Following each experiment, the bones were rinsed with PBS to remove unbound peptide and their fluorescence images were captured using a Typhoon fluorescence scanner (GE healthcare) or a Nikon Eclipse Ti inverted microscope. To quantify the fluorescence intensity, the images were converted into 8-bit using ImageJ to present the intensity level of each pixel in the range of 0 to 255. […]
mBMP binding to living trabecular bone cores (1 cm in diameter and 0.5 cm in thickness) harvested from bovine sternum was assessed. […] After incubating for various time periods, the binding was measured in terms of fluorescence intensity from rhodamine labeled mBMP. […]

KIPKASSVPTELSAISTLYLAAAAγEPRRγEVAγEL (KIPKASSVPTELSAISTLYLAAAA[Gla]PRR[Gla]VA[Gla]L-NH2; N-terminus assumed; SMILES CC[C@H](C)[C@H](NC(=O)[C@H](C)NC(=O)[C@H](CO)NC(=O)[C@H](CC(C)C)NC(=O)[C@H](CCC(=O)O)NC(=O)[C@@H](NC(=O)[C@@H]1CCCN1C(=O)[C@@H](NC(=O)[C@H](CO)NC(=O)[C@H](CO)NC(=O)[C@H](C)NC(=O)[C@H](CCCCN)NC(=O)[C@@H]1CCCN1C(=O)[C@@H](NC(=O)[C@@H](N)CCCCN)[C@@H](C)CC)C(C)C)[C@@H](C)O)C(=O)N[C@@H](CO)C(=O)N[C@H](C(=O)N[C@@H](CC(C)C)C(=O)N[C@@H](Cc1ccc(O)cc1)C(=O)N[C@@H](CC(C)C)C(=O)N[C@@H](C)C(=O)N[C@@H](C)C(=O)N[C@@H](C)C(=O)N[C@@H](C)C(=O)N[C@@H](CC(C(=O)O)C(=O)O)C(=O)N1CCC[C@H]1C(=O)N[C@@H](CCCNC(=N)N)C(=O)N[C@@H](CCCNC(=N)N)C(=O)N[C@@H](CC(C(=O)O)C(=O)O)C(=O)N[C@H](C(=O)N[C@@H](C)C(=O)N[C@@H](CC(C(=O)O)C(=O)O)C(=O)N[C@@H](CC(C)C)C(N)=O)C(C)C)[C@@H](C)O) [eBGa3]
initially bound peptide remaining bound [1]: ~85%
peptide released from HA-coated films ([1]; PBS, 37° C.): 15.7±0.6%
effect of immobilized peptide on mineralized tissue formation (hMSCs): significantly enhanced
incubation time at which binding reached a plateau [2]: 4 h
